From patent US12594276B2, “Inhibitors of human immunodeficiency virus replication” (ViiV Healthcare UK (No.5) Limited, priority 2024, dated 2026)

What was measured:
[1] = test system: recombinant NL4-3 virus (nef section replaced with Renilla luciferase gene) in MT-2 cells; test: HIV cell culture assay (antiviral activity, luciferase readout); assay type: cell-based; conditions: Renilla, NL43, MT-2 cells infected for 4-5 days with recombinant NL4-3 Renilla luciferase virus
How it was run: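 Antiviral EC50 derived from luciferase signal using the exponential median effect equation. Infection of MT-2 cells ran 4-5 days alongside serial dilutions of compound, with virus generated by proviral clone transfection of 293T cells.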

[2] = Compound cytotoxicity, XTT-based colorimetric assay; assay type: cell-based; conditions: human; uninfected MT2 cells, day 4, XTT; read-out: CC50
How it was run: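 Follows the antiviral assay procedure, but with uninfected MT2 cells. On day 4, cell viability is measured by XTT-based colorimetry, giving CC50 values.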

Structure (SMILES)	EC50 [1]	CC50 at 4 days [2]
Cc1cc(C2(F)CCC(F)(F)CC2)nc2nc([C@H](Cc3cc(F)cc(F)c3)NC(=O)Cn3nc(C(F)F)c4c3C(F)(F)[C@@H]3C[C@H]43)n(-c3ccc(Cl)c4c(NS(C)(=O)=O)nn(CCc5cccnc5)c34)c(=O)c12 (atropisomer, axis not shown; (P)) [Example 740, N-[(1S)-1-[(3P)-3-{4-chloro-3-methanesulfonamido-1-[2-(pyridin-3-yl)ethyl]-1H-indazol-7-yl}-5-methyl-4-oxo-7-(1,4,4-trifluorocyclohexyl)-3H,4H-pyrido[2,3-d]pyrimidin-2-yl]-2-(3,5-difluorophenyl)ethyl]-2-[(2S,4R)-9-(difluoromethyl)-5,5-difluoro-7,8-diazatricyclo[4.3.0.0^2,^4]nona-1(6),8-dien-7-yl]acetamide]	0.021 nM	> 20 nM
C[C@@H]1CN(CCn2nc(NS(C)(=O)=O)c3c(Cl)ccc(-n4c([C@H](Cc5cc(F)cc(F)c5)NC(=O)Cn5nc(C6CC6)c6c5C[C@@H]5C[C@H]65)nc5nc(C6CCC(F)(F)CC6)cc(C(F)F)c5c4=O)c32)CC(C)(C)O1 (atropisomer, axis not shown; (P)) [Example 462, N-[(1S)-1-[(3P)-3-(4-chloro-3-methanesulfonamido-1-{2-[(6R)-2,2,6-trimethylmorpholin-4-yl]ethyl}-1H-indazol-7-yl)-7-(4,4-difluorocyclohexyl)-5-(difluoromethyl)-4-oxo-3H,4H-pyrido[2,3-d]pyrimidin-2-yl]-2-(3,5-difluorophenyl)ethyl]-2-[(2S,4S)-9-cyclopropyl-7,8-diazatricyclo[4.3.0.0^2,^4]nona-1(6),8-dien-7-yl]acetamide]	0.019 nM	> 20 nM
COC[C@H]1CN(CCn2nc(NS(C)(=O)=O)c3c(Cl)ccc(-n4c([C@H](Cc5cc(F)cc(F)c5)NC(=O)Cn5nc(C(F)F)c6c5C(F)(F)[C@@H]5C[C@H]65)nc5nc(C6CCC(F)(F)CC6)ccc5c4=O)c32)CCO1 (atropisomer, axis not shown; (P)) [Example 356, N-[(1S)-1-[(3P)-3-(4-chloro-3-methanesulfonamido-1-{2-[(2R)-2-(methoxymethyl)morpholin-4-yl]ethyl}-1H-indazol-7-yl)-7-(4,4-difluorocyclohexyl)-4-oxo-3H,4H-pyrido[2,3-d]pyrimidin-2-yl]-2-(3,5-difluorophenyl)ethyl]-2-[(2S,4R)-9-(difluoromethyl)-5,5-difluoro-7,8-diazatricyclo[4.3.0.0^2,^4]nona-1(6),8-dien-7-yl]acetamide]	0.029 nM	> 50 nM
COCCn1nc(NS(C)(=O)=O)c2c(Cl)ccc(-n3c([C@H](Cc4cc(F)cc(F)c4)NC(=O)Cn4nc(C(F)F)c5c4C(F)(F)[C@@H]4C[C@H]54)nc4nc(C5CCC(F)(F)CC5)cc(C)c4c3=O)c21 (atropisomer, axis not shown; (P)) [Example 84, N-[(1S)-1-[(3P)-3-[4-chloro-3-methanesulfonamido-1-(2-methoxyethyl)-1H-indazol-7-yl]-7-(4,4-difluorocyclohexyl)-5-methyl-4-oxo-3H,4H-pyrido[2,3-d]pyrimidin-2-yl]-2-(3,5-difluorophenyl)ethyl]-2-[(2S,4R)-9-(difluoromethyl)-5,5-difluoro-7,8-diazatricyclo[4.3.0.0^2,^4]nona-1(6),8-dien-7-yl]acetamide]	0.016 nM	> 50 nM
COCCNc1cc(C2CCC(F)(F)CC2)nc2nc([C@H](Cc3cc(F)cc(F)c3)NC(=O)Cn3nc(C(F)F)c4c3C(F)(F)[C@@H]3C[C@H]43)n(-c3ccc(Cl)c4c(NS(C)(=O)=O)nn(CCOC)c34)c(=O)c12 (atropisomer, axis not shown; (P)) [Example 134, N-[(1S)-1-[(3P)-3-[4-chloro-3-methanesulfonamido-1-(2-methoxyethyl)-1H-indazol-7-yl]-7-(4,4-difluorocyclohexyl)-5-[(2-methoxyethyl)amino]-4-oxo-3H,4H-pyrido[2,3-d]pyrimidin-2-yl]-2-(3,5-difluorophenyl)ethyl]-2-[(2S,4R)-9-(difluoromethyl)-5,5-difluoro-7,8-diazatricyclo[4.3.0.0^2,^4]nona-1(6),8-dien-7-yl]acetamide]	0.022 nM	> 50 nM
COCCCn1nc(NS(C)(=O)=O)c2c(Cl)ccc(-n3c([C@H](Cc4cc(F)cc(F)c4)NC(=O)Cn4nc(C(F)F)c5c4C(F)(F)[C@@H]4C[C@H]54)nc4nc(C5CCC(F)(F)CC5)cc(NCCC5CCCCC5)c4c3=O)c21 (atropisomer, axis not shown; (P)) [Example 549, N-[(1S)-1-[(3P)-3-[4-chloro-3-methanesulfonamido-1-(3-methoxypropyl)-1H-indazol-7-yl]-5-[(2-cyclohexylethyl)amino]-7-(4,4-difluorocyclohexyl)-4-oxo-3H,4H-pyrido[2,3-d]pyrimidin-2-yl]-2-(3,5-difluorophenyl)ethyl]-2-[(2S,4R)-9-(difluoromethyl)-5,5-difluoro-7,8-diazatricyclo[4.3.0.0^2,^4]nona-1(6),8-dien-7-yl]acetamide]	0.258 nM	> 20 nM
Cc1cc(C2CCC(F)(F)CC2)nc2nc([C@H](Cc3cc(F)cc(F)c3)NC(=O)Cn3nc(C4CC4)c4c3C[C@@H]3C[C@H]43)n(-c3ccc(Cl)c4c(NS(C)(=O)=O)nn(CCN5CCCCC5)c34)c(=O)c12 (atropisomer, axis not shown; (P)) [Example 276, N-[(1S)-1-[(3P)-3-{4-chloro-3-methanesulfonamido-1-[2-(piperidin-1-yl)ethyl]-1H-indazol-7-yl}-7-(4,4-difluorocyclohexyl)-5-methyl-4-oxo-3H,4H-pyrido[2,3-d]pyrimidin-2-yl]-2-(3,5-difluorophenyl)ethyl]-2-[(2S,4S)-9-cyclopropyl-7,8-diazatricyclo[4.3.0.0^2,^4]nona-1(6),8-dien-7-yl]acetamide]	0.016 nM	> 50 nM
COCCCn1nc(NS(C)(=O)=O)c2c(Cl)ccc(-n3c([C@H](Cc4cc(F)cc(F)c4)NC(=O)Cn4nc(C(F)F)c5c4C(F)(F)[C@@H]4C[C@H]54)nc4nc(C5(F)CCC(F)(F)CC5)cc(C)c4c3=O)c21 (atropisomer, axis not shown; (P)) [Example 553, N-[(1S)-1-[(3P)-3-[4-chloro-3-methanesulfonamido-1-(3-methoxypropyl)-1H-indazol-7-yl]-5-methyl-4-oxo-7-(1,4,4-trifluorocyclohexyl)-3H,4H-pyrido[2,3-d]pyrimidin-2-yl]-2-(3,5-difluorophenyl)ethyl]-2-[(2S,4R)-9-(difluoromethyl)-5,5-difluoro-7,8-diazatricyclo[4.3.0.0^2,^4]nona-1(6),8-dien-7-yl]acetamide]	0.024 nM	> 20 nM
COCCCn1nc(NS(C)(=O)=O)c2c(Cl)ccc(-n3c([C@H](Cc4cc(F)cc(F)c4)NC(=O)Cn4nc(C(F)F)c5c4C(F)(F)[C@@H]4C[C@H]54)nc4nc(C5CCC(F)(F)CC5)cc(NCCC5CCOCC5)c4c3=O)c21 (atropisomer, axis not shown; (P)) [Example 550, N-[(1S)-1-[(3P)-3-[4-chloro-3-methanesulfonamido-1-(3-methoxypropyl)-1H-indazol-7-yl]-7-(4,4-difluorocyclohexyl)-5-{[2-(oxan-4-yl)ethyl]amino}-4-oxo-3H,4H-pyrido[2,3-d]pyrimidin-2-yl]-2-(3,5-difluorophenyl)ethyl]-2-[(2S,4R)-9-(difluoromethyl)-5,5-difluoro-7,8-diazatricyclo[4.3.0.0^2,^4]nona-1(6),8-dien-7-yl]acetamide]	0.012 nM	> 20 nM
Cc1cc(C2CCC(F)(F)CC2)nc2nc([C@H](Cc3cc(F)cc(F)c3)NC(=O)Cn3nc(C(F)F)c4c3C(F)(F)[C@@H]3C[C@H]43)n(-c3ccc(Cl)c4c(NS(C)(=O)=O)nn(CCN5CCC(F)(F)C5)c34)c(=O)c12 (atropisomer, axis not shown; (P)) [Example 231, N-[(1S)-1-[(3P)-3-{4-chloro-1-[2-(3,3-difluoropyrrolidin-1-yl)ethyl]-3-methanesulfonamido-1H-indazol-7-yl}-7-(4,4-difluorocyclohexyl)-5-methyl-4-oxo-3H,4H-pyrido[2,3-d]pyrimidin-2-yl]-2-(3,5-difluorophenyl)ethyl]-2-[(2S,4R)-9-(difluoromethyl)-5,5-difluoro-7,8-diazatricyclo[4.3.0.0^2,^4]nona-1(6),8-dien-7-yl]acetamide]	0.01 nM	> 50 nM
CS(=O)(=O)Nc1nn(CCN2C[C@H](F)C[C@H](F)C2)c2c(-n3c([C@H](Cc4cc(F)cc(F)c4)NC(=O)Cn4nc(C(F)F)c5c4C(F)(F)[C@@H]4C[C@H]54)nc4nc(C5CCC(F)(F)CC5)cc(C5CC5)c4c3=O)ccc(Cl)c12 (atropisomer, axis not shown; (P)) [Example 322, N-[(1S)-1-[(3P)-3-(4-chloro-1-{2-[(3R,5S)-3,5-difluoropiperidin-1-yl]ethyl}-3-methanesulfonamido-1H-indazol-7-yl)-5-cyclopropyl-7-(4,4-difluorocyclohexyl)-4-oxo-3H,4H-pyrido[2,3-d]pyrimidin-2-yl]-2-(3,5-difluorophenyl)ethyl]-2-[(2S,4R)-9-(difluoromethyl)-5,5-difluoro-7,8-diazatricyclo[4.3.0.0^2,^4]nona-1(6),8-dien-7-yl]acetamide]	0.009 nM	> 50 nM
